Values quoted from earlier work in patent publication US6346251B1 (priority 1999, dated 2002).

Assays:
[1] = tested on: human epidermoid cells
[2] = tested on: human epidermoid cells, virally infected with HSV-2
[3] = tested on: cancer; settings: Phase II testing

| Structure (SMILES) | Trichothecene Concentrations, PIC100 max [1] [ng/mL] | concentrations that did not reduce cell viability [1] | nontoxic zone [1] [ng/mL] | safe level [1] [ng/mL] | Trichothecene Concentrations, Protein Synthesis Inhibition 50% [2] [ng/mL] | Trichothecene Concentrations, Protein Synthesis Inhibition 80% (PIC80) [2] [ng/mL] | Trichothecene Concentrations, Protein Synthesis Inhibition 85% (PIC85) [2] [ng/mL] | Trichothecene Concentrations, Protein Synthesis Inhibition 90% (PIC90) [2] [ng/mL] | hyperactive protein synthesis inhibited [2] [%] | hematologic toxicity [3] | tumor response [3] |
| --- | --- | --- | --- | --- | --- | --- | --- | --- | --- | --- | --- |
| CC(=O)OC[C@]12CCC(C)=C[C@H]1O[C@@H]1[C@H](O)[C@@H](OC(C)=O)[C@@]2(C)[C@]12CO2 [DAS] | 200 | up to 200 ng/ml | < 200 | 200 | 2.3 | 4.0 | 4.2 | 4.5 | ~99 |  |  |
| CC(=O)OC[C@]12CCC(C)=C[C@H]1O[C@@H]1[C@H](O)[C@@H](OC(C)=O)[C@@]2(C)[C@]12CO2 [Anguidine] |  |  |  |  |  |  |  |  |  | considerable hematologic toxicity | low tumor response |
